{"source": "patent EP2308883A1", "about": "“New derivatives of thieno[2,3-b]pyridine and 5,6,7,8 tetrahydrothieno[2,3 b]quinoline in particular useful in the treatment of malaria” (priority 2009, dated 2011)", "key": {"[1]": {"test_system": "panel of 22 purified kinases, including 4 P. falciparum kinases", "assay": "Small panel of 22 purified kinases", "type": "biochemical", "settings": "at concentrations up to 10 µM", "method": "(§1) Compound No. 22 was also tested on a small panel of 22 purified kinases, including 4 P. falciparum kinases. […] To complement this selectivity study, compound No 22 was run on two large scale selectivity panels: Prof. P. Cohen's kinase selectivity panel (76 kinases) (Bain J, Plater L, Elliott M, Shapiro N, Hastie CJ, McLauchlan H et al. (2007). The selectivity of protein kinase inhibitors: a further update. Biochem J. 408: 297-315.) and the Ambit Biosciences interaction assay (402 kinases) (Karaman MW, Herrgard S, Treiber DK, Gallant P, Atteridge CE, Campbell BT, Chan KW, Ciceri P, Davis MI, Edeen PT, Faraoni R, Floyd M, Hunt JP, Lockhart DJ, Milanov ZV, Morrison MJ, Pallares G, Patel HK, Pritchard S, Wodicka LM, Zarrinkar PP. A quantitative analysis of kinase inhibitor selectivity. Nat Biotechnol. 2008 Jan;26(1):127-32.)."}, "mammalian kinases": {"test_system": "mammalian kinases", "settings": "compared with roscovitine and staurosporine", "method": "as §1"}}, "data": [{"smiles": "N#Cc1c(N)nc2sc(C(=O)c3cccc(Cl)c3)c(N)c2c1-c1ccccc1Cl", "note": "[Compound 22, 3,6-diamino-2-(3-chlorobenzoyl)-4-(2-chlorophenyl)thieno[2,3-b]pyridine-5-carbonitrile]", "values": [{"measurement": "inhibition of kinases of the panel besides PfGSK-3", "setting": "[1]", "value": "no kinase was found to be inhibited"}, {"measurement": "inhibition of mammalian kinases in selectivity panels", "setting": "mammalian kinases", "value": "very poor, if at all, inhibitor of mammalian kinases"}]}]}
